Results published in patent US8916574B2, “4-(substituted anilino)-quinazoline derivatives useful as tyrosine kinase inhibitors” (Qilu Pharmaceutical Co., Ltd., priority 2009, dated 2014).
Read-outs that look alike come from different tables or passages of the source.

What was measured:
[1] = target: Her2 receptor tyrosine kinase (Homo sapiens (Human), UniProt P04626); experiment: In vitro kinase analysis, HTScan HER2/ErbB2 Kinase Assay Kit (substrate peptide phosphorylation); format: biochemical
Procedure: (§1) Operation steps refer to the specification of the used kits, and the method was used to measure the inhibition effects of the compound to be tested on substrate peptide phosphorylation of EGFR or Her2 receptor tyrosine kinase. At room temperature, ATP and substrate peptide as well as the compound to be tested were incubated in kinase reaction buffer, after a period of incubation, a stop buffer was added to terminate the reaction and the sample was transferred to a streptavidin-coated 96-well plate, the plate was washed and the phosphorylation level of substrate peptide was detected by using HRP-marked antibody against substrate phosphorylation, colorated with TMB, terminated the reaction with 2M sulfuric acid. Absorption at 450 nm wavelength was detected, and IC50 value (μM) was calculated.

[2] = target: EGFR receptor tyrosine kinase (Homo sapiens (Human), UniProt P00533); experiment: In vitro kinase analysis, HTScan EGF Receptor Kinase Assay Kit (substrate peptide phosphorylation); format: biochemical
Procedure: as §1

[3] = test system: human gastric cancer cell line NCI-N87; experiment: Test of cell proliferation inhibition (SRB), N87; format: cell-based; details: for IC50: Homo sapiens, NCI-N87, 72 h, read-out: Test of cell proliferation inhibition IC50 N87
Procedure: (§2) The test was performed by referring to the method as described by Rusnak et al., Cell Prolif, 2007, 40, 580-594. The test of cell proliferation inhibition used human breast cancer cells BT474 and human gastric cancer cell line NCI-N87, BT474 over-expressing Her2 receptor, N87 over-expressing EGFR and Her2 receptor.
(§3) In a Dulbecco Modified Eagle Medium (DMEM) comprising 10% fetal bovine serum, 2 mM glutamine and non-essential amino acids, cells were cultured at 37° C. in 5% CO2 cell incubator, and trypsin/ethylenediamine tetraacetic acid (EDTA) were used to harvest cells in cell culture bottle. […] The change of cell form was observed under microscope, then 50 μl 50% (mass/volume)trichloroacetic acid (TCA) was added to per well to fix cells. The final concentration of TCA was 10%, standing for 5 min and placing in 4° C. refrigerator for 1 h, the wells of the culture plate were washed with deionized water for 5 times to remove TCA, drained, dried in air until no wet trace was observed. 100 μl of 0.4% (mass/volume) SRB was added to each well, stood at room temperature for 10 min, the liquid in each well was discarded, then the wells were washed with 1% acetic acid for 5 times, dried in air, extracted with 150 μl of 10 mM Tris base (trihydroxymethylaminomethane, pH 10.5), the absorption at 540 nm wavelength was detected.

[4] = test system: human ovarian cancer SK-OV-3 transplanted tumor; experiment: Tumor inhibition at different dosages, SK-OV-3 transplanted tumor in nude mice; format: in vivo, BALB/cA-nude mice; details: once per day, 21 days; for Animal number in each group: Partial regression: of 6 animals
Source text: (§4) BALB/cA-nude mice, female, 4-6 weeks, body weight 22±2 g, were purchased from Shanghai SLAC Laboratory Animal Co. Ltd, raised in SPF grade environment.
(§5) In vitro cultured NCI-N87 cells were subcutaneously inoculated at right axillary fossa of nude mice, each was inoculated with about 5×10^6 cells, and passaged twice in vivo after tumor formation. Under sterile conditions, eugonic tumor tissues were cut into tumor pieces of about 1.5 mm^3, and inoculated at right axillary fossa of nude mice. Tumor diameters were measured by vernier caliper, the animals were randomly divided (d0) after the tumors grew to 100-200 mm^3. […] During administration period, the body weight of mice and the diameter of tumors were measured 3 times per week. The tumor volume and relative tumor volume were calculated according to the measured data, the formulation for calculating tumor volume (TV) is: TV=½×a×b^2, wherein a, b represent major diameter and minor diameter of tumor; the formulation for calculating relative tumor volume (RTV) is: RTV=Vt/V0, wherein V0 is the tumor volume measured when dividing groups for administration (i.e., d0), Vt is tumor volume measured each time. […] The formulation for calculating relative tumor inhibition rate is: 1−T/C (%).
Nude mice were subcutaneously inoculated with human ovarian cancer SK-OV-3 cells, after tumors grew to 60-150 mm^3, the animals were randomly divided into groups (d0). […] The tumor volume, and body weight of mice were measured 3 times per week, and all data were recorded. The tumor volume, relative tumor inhibition rate and so on were calculated according to the aforementioned methods.

[5] = Pharmacokinetics in SD rats after a single intragastric dose; format: in vivo; details: 100 mg/kg intragastric single dose, plasma
Procedure: The animals were fasted for 12 h before test, drinking water freely. And fed after 2 h of administration. At 0.25, 0.5, 1.0, 2.0, 3.0, 5.0, 7.0, 9.0, 12 and 24 h after administration, 0.3 ml blood samples were taken from venous plexus behind eyeball of rats into heparinized test tubes, then centrifuged at 11000 rpm for 5 min, plasma were separated, and preserved at […]. The concentrations of drug in original form and metabolites thereof in plasma were measured by liquid chromatography-mass spectrometry.

[6] = test system: human gastric cancer NCI-N87 transplanted tumor; experiment: Tumor inhibition at a single dose, NCI-N87 transplanted tumor in nude mice; format: in vivo, BALB/cA-nude mice; details: 200 mg/kg intragastrically, once per day, 28 days; for Rate of tumor inhibition d21 (%): head prints d21; for d28 Vave (tumor volume): in mm³; for Animal number in each group: Partial regression: of 6 animals
Source text: as §4, §5

[7] = test system: human ovarian cancer SK-OV-3 transplanted tumor; experiment: Tumor inhibition at a single dose, SK-OV-3 transplanted tumor in nude mice; format: in vivo, BALB/cA-nude mice; details: 200 mg/kg intragastrically, once per day, 21 days; for Animal number in each group: Partial regression: of 6 animals
Source text: as §4, §5
Nude mice were subcutaneously inoculated with human ovarian cancer SK-OV-3 cells, after tumors grew to 60-150 mm^3, the animals were randomly divided into groups (d0). […] During the administration period, the body weight of mice and the diameter of tumor were measured 3 times per week. The tumor volume, relative tumor inhibition rate and so on were calculated according to the aforementioned methods.

[8] = test system: human breast cancer cells BT474; experiment: Test of cell proliferation inhibition (SRB), BT474; format: cell-based; details: BT-474, 72 h
Procedure: as §2, §3

[9] = target: hERG potassium currents (IKr) (Homo sapiens (Human), UniProt Q12809); experiment: hERG potassium currents, whole cell patch clamp in transfected HEK293 cells; format: cell-based; details: HEK293 cells transfected with hERG cDNA
Sequence of hERG potassium currents (IKr) (Q12809 whole entry): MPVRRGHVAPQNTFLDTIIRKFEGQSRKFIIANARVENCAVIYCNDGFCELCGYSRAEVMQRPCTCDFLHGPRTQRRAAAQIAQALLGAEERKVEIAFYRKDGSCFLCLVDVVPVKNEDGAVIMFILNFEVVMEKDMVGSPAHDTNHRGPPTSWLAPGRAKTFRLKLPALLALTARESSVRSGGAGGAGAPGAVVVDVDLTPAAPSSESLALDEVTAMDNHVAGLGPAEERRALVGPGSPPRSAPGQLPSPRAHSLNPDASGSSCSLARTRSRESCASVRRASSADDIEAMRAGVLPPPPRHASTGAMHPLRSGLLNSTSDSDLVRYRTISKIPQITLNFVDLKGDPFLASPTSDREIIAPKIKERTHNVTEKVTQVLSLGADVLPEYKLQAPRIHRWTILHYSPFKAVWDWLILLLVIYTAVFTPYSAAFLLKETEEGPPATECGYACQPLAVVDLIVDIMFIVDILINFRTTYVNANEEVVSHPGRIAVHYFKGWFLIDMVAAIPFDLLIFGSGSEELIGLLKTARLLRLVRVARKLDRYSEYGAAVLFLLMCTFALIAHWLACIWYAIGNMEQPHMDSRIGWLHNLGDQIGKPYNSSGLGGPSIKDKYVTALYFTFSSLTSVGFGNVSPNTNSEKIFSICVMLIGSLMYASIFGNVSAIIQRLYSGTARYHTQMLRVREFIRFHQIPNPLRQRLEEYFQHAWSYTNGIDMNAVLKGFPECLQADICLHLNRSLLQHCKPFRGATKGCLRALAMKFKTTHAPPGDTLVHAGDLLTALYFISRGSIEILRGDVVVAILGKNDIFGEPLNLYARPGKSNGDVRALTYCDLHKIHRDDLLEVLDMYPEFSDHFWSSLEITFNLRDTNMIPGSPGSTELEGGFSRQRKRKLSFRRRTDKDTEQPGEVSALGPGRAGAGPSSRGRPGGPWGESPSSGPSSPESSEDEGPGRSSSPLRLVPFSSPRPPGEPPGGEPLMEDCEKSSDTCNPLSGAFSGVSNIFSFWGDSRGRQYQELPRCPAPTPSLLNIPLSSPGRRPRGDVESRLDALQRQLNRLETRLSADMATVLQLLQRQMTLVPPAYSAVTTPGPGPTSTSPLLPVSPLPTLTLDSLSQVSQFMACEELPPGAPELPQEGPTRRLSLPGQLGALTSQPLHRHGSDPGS

Sequence of EGFR receptor tyrosine kinase (P00533 25-1210): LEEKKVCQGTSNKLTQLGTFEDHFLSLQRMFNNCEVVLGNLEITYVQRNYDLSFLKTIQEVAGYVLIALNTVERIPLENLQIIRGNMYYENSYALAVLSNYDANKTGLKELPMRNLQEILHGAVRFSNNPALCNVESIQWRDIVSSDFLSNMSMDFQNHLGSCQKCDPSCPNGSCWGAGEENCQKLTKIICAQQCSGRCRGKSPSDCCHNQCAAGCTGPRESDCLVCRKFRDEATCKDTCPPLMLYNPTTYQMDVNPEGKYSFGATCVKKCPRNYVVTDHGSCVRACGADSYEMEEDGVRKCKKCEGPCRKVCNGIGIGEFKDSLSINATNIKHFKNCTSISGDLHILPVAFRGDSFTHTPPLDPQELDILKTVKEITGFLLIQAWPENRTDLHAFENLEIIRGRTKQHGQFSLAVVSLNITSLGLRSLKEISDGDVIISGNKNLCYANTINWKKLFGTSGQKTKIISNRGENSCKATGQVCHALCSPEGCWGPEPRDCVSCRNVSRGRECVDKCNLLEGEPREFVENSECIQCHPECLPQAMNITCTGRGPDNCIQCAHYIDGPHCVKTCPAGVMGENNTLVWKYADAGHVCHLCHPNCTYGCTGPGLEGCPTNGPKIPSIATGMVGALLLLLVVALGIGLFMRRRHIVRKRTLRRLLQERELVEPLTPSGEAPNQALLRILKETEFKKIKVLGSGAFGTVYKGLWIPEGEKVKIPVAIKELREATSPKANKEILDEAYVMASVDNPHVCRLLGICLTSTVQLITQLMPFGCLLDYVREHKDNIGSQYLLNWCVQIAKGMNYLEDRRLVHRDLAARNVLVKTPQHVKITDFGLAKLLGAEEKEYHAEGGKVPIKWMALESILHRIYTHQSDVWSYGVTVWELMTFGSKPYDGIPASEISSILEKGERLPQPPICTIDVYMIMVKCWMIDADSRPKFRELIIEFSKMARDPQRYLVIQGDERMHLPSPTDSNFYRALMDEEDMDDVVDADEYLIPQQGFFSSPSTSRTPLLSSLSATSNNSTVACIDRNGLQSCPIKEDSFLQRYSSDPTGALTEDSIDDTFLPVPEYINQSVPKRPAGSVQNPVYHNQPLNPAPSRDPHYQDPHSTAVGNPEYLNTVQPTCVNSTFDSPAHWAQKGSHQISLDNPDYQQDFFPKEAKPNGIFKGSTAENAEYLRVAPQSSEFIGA
Sequence of Her2 receptor tyrosine kinase (P04626 23-1255): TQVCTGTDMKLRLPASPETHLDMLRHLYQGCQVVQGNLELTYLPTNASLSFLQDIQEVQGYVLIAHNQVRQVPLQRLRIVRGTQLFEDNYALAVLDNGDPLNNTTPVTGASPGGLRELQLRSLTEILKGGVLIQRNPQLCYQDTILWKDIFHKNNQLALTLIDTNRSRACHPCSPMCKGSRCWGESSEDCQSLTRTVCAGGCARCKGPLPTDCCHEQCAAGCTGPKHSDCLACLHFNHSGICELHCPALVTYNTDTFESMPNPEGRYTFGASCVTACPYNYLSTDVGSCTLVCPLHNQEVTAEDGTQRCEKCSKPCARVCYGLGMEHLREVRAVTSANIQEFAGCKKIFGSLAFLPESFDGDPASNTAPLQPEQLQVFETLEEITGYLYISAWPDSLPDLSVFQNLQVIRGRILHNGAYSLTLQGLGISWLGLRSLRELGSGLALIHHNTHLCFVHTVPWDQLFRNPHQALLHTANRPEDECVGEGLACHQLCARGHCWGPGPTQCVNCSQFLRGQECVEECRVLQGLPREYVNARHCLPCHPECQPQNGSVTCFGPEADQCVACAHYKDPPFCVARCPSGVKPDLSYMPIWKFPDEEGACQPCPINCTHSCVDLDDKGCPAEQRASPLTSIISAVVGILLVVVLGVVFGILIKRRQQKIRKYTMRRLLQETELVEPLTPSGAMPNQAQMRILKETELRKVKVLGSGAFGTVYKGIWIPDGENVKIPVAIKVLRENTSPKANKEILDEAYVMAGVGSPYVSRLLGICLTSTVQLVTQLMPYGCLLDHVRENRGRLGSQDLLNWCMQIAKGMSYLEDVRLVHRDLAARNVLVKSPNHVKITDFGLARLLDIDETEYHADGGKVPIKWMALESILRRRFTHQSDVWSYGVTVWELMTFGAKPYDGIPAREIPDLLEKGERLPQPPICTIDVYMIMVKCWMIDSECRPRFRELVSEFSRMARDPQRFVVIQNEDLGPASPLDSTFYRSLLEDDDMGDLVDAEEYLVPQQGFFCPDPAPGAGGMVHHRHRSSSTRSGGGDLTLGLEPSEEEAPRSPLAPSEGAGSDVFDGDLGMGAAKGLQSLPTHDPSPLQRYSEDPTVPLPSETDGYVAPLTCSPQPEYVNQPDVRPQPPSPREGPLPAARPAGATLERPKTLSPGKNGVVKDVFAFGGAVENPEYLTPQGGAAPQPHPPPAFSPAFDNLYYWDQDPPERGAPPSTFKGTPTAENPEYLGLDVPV

CS(=O)(=O)NCCNCc1ccc(-c2ccc3ncnc(Nc4ccc(OCc5cccc(F)c5)c(Cl)c4)c3c2)o1 [Compound 4, N-(4-(3-fluorobenzyloxy)-3-chlorophenyl)-6-(5-((2-(methylsulfonamido)ethylamino)methyl)-2-furyl)-quinazolin-4-amine]
IC50 [1]: 7.06 nM
IC50 [2]: 15.5 nM

CS(=O)(=O)CCNCc1ccc(-c2ccc3ncnc(Nc4ccc(OCc5cccc(F)c5)c(Cl)c4)c3c2)o1 [Compound 61, N-(4-(3-fluorobenzyloxy)-3-chlorophenyl)-6-(5-((2-(methylsulfonyl)ethylamino)methyl)-2-furyl)-quinazolin-4-amine, reference compound]
biological activity results in the same test (in words) ([3]; same test as Table 1 (cell proliferation inhibition, N87 and BT474), comparison in words): close to those of compound 6
Rate of tumor inhibition d21 (%) ([4]; 200 mg/kg intragastrically): 75%
d21 Vave (tumor volume) ([4]; 200 mg/kg intragastrically): 350.1 mm^3
Animal number in each group: Partial regression ([4]; 200 mg/kg intragastrically): 0
AUC0-t ± SD [5]: 26908 ± 9085 ng·h/mL
AUC0-∞ ± SD [5]: 26921 ± 9092 ng·h/mL
Cmax ± SD [5]: 3902 ± 1208 ng/mL
MRT ± SD [5]: 5.52 ± 0.90 h
T1/2 ± SD [5]: 1.91 ± 0.45 h
Tmax ± SD [5]: 2.5 ± 0.6 h
Rate of tumor inhibition d21 (%) [6]: 89.8%
d28 Vave (tumor volume) [6]: 106.20
Animal number in each group: Partial regression [6]: 5
Rate of tumor inhibition d21 (%) [7]: 79%
d21 Vave (tumor volume) [7]: 291.0 mm^3
Animal number in each group: Partial regression [7]: 1

NS(=O)(=O)CCNCc1ccc(-c2ccc3ncnc(Nc4ccc(OCc5cccc(F)c5)c(Cl)c4)c3c2)o1 [Compound 1, N-(4-(3-fluorobenzyloxy)-3-chlorophenyl)-6-(5-((2-(sulfamoyl)ethylamino)methyl)-2-furyl)-quinazolin-4-amine]
IC50 [1]: 1.55 nM

O=S(=O)(CCNCc1ccc(-c2ccc3ncnc(Nc4ccc(OCc5cccc(F)c5)c(Cl)c4)c3c2)o1)CC(F)(F)F [Compound 5, N-(4-(3-fluorobenzyloxy)-3-chlorophenyl)-6-(5-((2-(2,2,2-trifluoroethylsulfonyl)ethylamino)methyl)-2-furyl)-quinazolin-4-amine]
IC50 [3]: 33.7 nM
IC50 [1]: 8.08 nM
IC50 [8]: 18.8 nM
RTV (relative tumor volume) [6]: 2.574
Rate of tumor inhibition d21 (%) [6]: 46.8%
d28 Vave (tumor volume) [6]: 414.78
Animal number in each group: Partial regression [6]: 1
IC50 [2]: 14.6 nM
RTV (relative tumor volume) [7]: 5.8
Rate of tumor inhibition d21 (%) [7]: 45%
d21 Vave (tumor volume) [7]: 770.9 mm^3
Animal number in each group: Partial regression [7]: 0

CSCCNCc1ccc(-c2ccc3ncnc(Nc4ccc(OCc5cccc(F)c5)c(Cl)c4)c3c2)o1 [Compound 3, N-(4-(3-fluorobenzyloxy)-3-chlorophenyl)-6-(5-((2-(methylthio)ethylamino)methyl)-2-furyl)-quinazolin-4-amine]
IC50 [3]: 24.9 nM
RTV (relative tumor volume) ([4]; 50 mg/kg intragastrically): 6.9
Rate of tumor inhibition d21 (%) ([4]; 50 mg/kg intragastrically): 32%
d21 Vave (tumor volume) ([4]; 50 mg/kg intragastrically): 830.7 mm^3
Animal number in each group: Partial regression ([4]; 50 mg/kg intragastrically): 0
RTV (relative tumor volume) ([4]; 100 mg/kg intragastrically): 6.5
Rate of tumor inhibition d21 (%) ([4]; 100 mg/kg intragastrically): 36%
d21 Vave (tumor volume) ([4]; 100 mg/kg intragastrically): 778.6 mm^3
Animal number in each group: Partial regression ([4]; 100 mg/kg intragastrically): 0
RTV (relative tumor volume) ([4]; 200 mg/kg intragastrically): 4.4
Rate of tumor inhibition d21 (%) ([4]; 200 mg/kg intragastrically): 56%
d21 Vave (tumor volume) ([4]; 200 mg/kg intragastrically): 612.6 mm^3
Animal number in each group: Partial regression ([4]; 200 mg/kg intragastrically): 0
IC50 [1]: 34.6 nM
IC50 [8]: 23.4 nM
RTV (relative tumor volume) [6]: 0.743
Rate of tumor inhibition d21 (%) [6]: 84.6%
d28 Vave (tumor volume) [6]: 143.01
Animal number in each group: Partial regression [6]: 4
IC50 [2]: 56.2 nM
RTV (relative tumor volume) [7]: 2.7
Rate of tumor inhibition d21 (%) [7]: 75%
d21 Vave (tumor volume) [7]: 334.8 mm^3
Animal number in each group: Partial regression [7]: 0

C[S+]([O-])CCNCc1ccc(-c2ccc3ncnc(Nc4ccc(OCc5cccc(F)c5)c(Cl)c4)c3c2)o1 (centres unmarked) [Compound 2, N-(4-(3-fluorobenzyloxy)-3-chlorophenyl)-6-(5-((2-(methylsulfinyl)ethylamino)methyl)-2-furyl)-quinazolin-4-amine]
AUC0-t ± SD [5]: 50299 ± 12863 ng·h/mL
AUC0-∞ ± SD [5]: 53236 ± 12248 ng·h/mL
Cmax ± SD [5]: 8881 ± 2061 ng/mL
MRT ± SD [5]: 5.38 ± 0.59 h
T1/2 ± SD [5]: 2.32 ± 0.5 h
Tmax ± SD [5]: 3.5 ± 1.0 h
IC50 ([9]; read-out: semi-effective inhibition dose IC50 for IKr pulse current): 10100 ± 960 nM
IC50 ([9]; read-out: semi-effective inhibition dose IC50 for tail current): ~9240 nM
IC50 [2]: 52.7 nM

O=S(=O)(CCNCc1ccc(-c2ccc3ncnc(Nc4ccc(OCc5cccc(F)c5)c(Cl)c4)c3c2)o1)C(F)(F)F [Compound 6, N-(4-(3-fluorobenzyloxy)-3-chlorophenyl)-6-(5-((2-(trifluoromethylsulfonyl)ethylamino)methyl)-2-furyl)-quinazolin-4-amine]
IC50 [3]: 54.6 nM
IC50 [1]: 25.6 nM
IC50 [8]: 49.7 nM
IC50 [2]: 32.4 nM
